Reference: PMC12442639, “A Two‐Protein Chemoreceptor Complex Regulates Oxygen Thresholds in Bacterial Magneto‐Aerotaxis” (Advanced Science, 2025)

Target: T1, CetB2 (His6-CetB2) (Magnetospirillum gryphiswaldense, UniProt A0ACM8ULG3)
T1 construct: N-terminal His6 tag (pET28a), expressed in E. coli Rosetta(DE3) pLysSRARE, Ni-agarose purified; predicted FAD-site residues His54, Asn55, Arg58, Phe67, Trp71, Asn86, Val100, Arg117
Test: LC-MS of purified protein; UV/vis spectroscopy; cyclic voltammetry
Format: binding
Details: non-covalently bound, co-purified FAD; UV/vis in 50 mM Na-phosphate pH 8, 300 mM NaCl, 5% glycerol

T1 sequence (A0ACM8ULG3 entry or part of it): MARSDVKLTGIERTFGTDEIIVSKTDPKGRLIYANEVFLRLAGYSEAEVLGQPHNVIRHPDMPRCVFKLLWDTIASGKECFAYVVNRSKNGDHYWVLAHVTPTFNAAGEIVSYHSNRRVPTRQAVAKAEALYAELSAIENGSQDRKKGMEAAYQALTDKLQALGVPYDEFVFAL

Cc1cc2nc3c(=O)[nH]c(=O)nc-3n(C[C@H](O)[C@H](O)[C@H](O)COP(=O)(O)OP(=O)(O)OC[C@H]3O[C@@H](n4cnc5c(N)ncnc54)[C@H](O)[C@@H]3O)c2cc1C [FAD, flavin adenine dinucleotide]
LC-MS of purified protein; UV/vis spectroscopy; cyclic voltammetry: indicates that FAD was non‐covalently bound to the protein and released during chromatographic separation
